Assay results taken from US5783599A, “Methods of treating cancer and viral infections with 5-iodo-6-amino-and 5-iodo-6-nitroso-1 2-benzopyrones” (priority 1996, dated 1998).
Entries after “also recorded” stand apart in the source; their conditions may differ.

Experiments:
[1] = system: malignant cell proliferation; test: Malignant cell proliferation / cytostatic activity in cell cultures, overall; type: cell-based
Description: (§1) In this study, the following cell lines were used. Cell line CG I, a non-tumorigenic hybrid of HeLa cells with normal human fibroblasts, and its is tumorigenic revertant counterpart, CG1 III, as described in Science, 215:252 (1982). These cells were obtained from UC Irvine. […] HEp-2 human epidermoid carcinoma cells were provided by Dr. L. Aurelian (University of Maryland). E-Ras cells were-obtained from University of Cincinnati and represent an endothelial cell line transfected with pSV2neo plasmid as described in Proc. Natl. Acad. Sci., 76:1373 (1979). This cell line contains several copies of the activated human Ha-ras oncogene.
Cells were seeded to 2 cm^2 wells of Falcon tissue culture plates at a density of 6000±650 cells per well. Inhibitors were added to the seeding suspensions from stock solutions of 100 mM 6-ABP in water or 50 mM 5-1-6-ABP in dimethylsulfoxide (DMSO). […] Growth media were Dulbeccos MEM (lines #1 and 2), and Dulbeccols Modified Eagle's Medium, containing 10% fetal bovine serum and penicillin (100 μg/ml) plus streptomycin (100 μg/ml). After incubation for 72 hours at 37° C. in a 5% CO2 humidified atmosphere, incorporation of [^3 H] deoxyadenosine (ICN, 18 Ci/mmol) into DNA was tested as follows: [^3 H] deoxyadenosine (450,000 dpm in 40 μl) of medium was added per well (each containing 600 μl of medium) and incubation at 37° C. was continued for 1 hour, followed by removal of the medium and rinsing of the wells 3 times with phosphate-buffered saline. Cells were then lysed in 500 μl of 0.06M NaOH and the acid precipitable radioactivity was determined.

ADPRT [2] = target: T1, ADPRT (Bos taurus, UniProt P18493); test: Inhibition of ADPRT / binding to ADPRT (I50, Ki); type: biochemical
Description: Their biological action spectrum is nearly the same as that of 6-ABP, except that their potency is about 10-50 times greater. Such potency is particularly well documented in case of 5-I-6-ABP against malignant cell proliferation in cell cultures. […] This effectivity is 10-20 times higher than 6-ABP.
The 6-amino group of 5-I-6-ABP is rapidly oxidized intracellularly to 5-I-6-NOBP which, by binding to the Zn^2+ -finger domain of ADPRT, destabilizes the tightly chelated Zn^2+ by the oxidation of the thiol groups in the Zn^2+ finger polypeptide, thus ejecting Zn^2+. In this way, 5-I-6-ABP effectively inactivates the ADPR-forming activity of this protein and converts it to a DNA binding protein that reacts with "internal domains" of certain double stranded DNA (Biochemistry, 28:5670 (1989); Biochem. Biophys. Res. Commun., 167:842 (1990)). These DNA domains include abnormally replicating DNA structures in tumorigenic or proliferative cells and in viral DNAs, probably at the integration sites.

[3] = Metabolic conversion in liver / intracellular oxidation and cell penetration; conditions: nitro oxidation product formed in liver
E-Ras cells = test: DNA synthesis ([3H]deoxyadenosine incorporation) in E-Ras cells; type: cell-based; conditions: 6-ABP 0.5 mM, 72 h, N=5
Description: as §1
(§2) Cells were seeded to 2 cm^2 wells of Falcon tissue culture plates at a density of 6000±650 cells per well. Inhibitors were added to the seeding suspensions from stock solutions of 100 mM 6-ABP in water or 50 mM 5-1-6-ABP in dimethylsulfoxide (DMSO). […] Growth media were Dulbeccos MEM (lines #1 and 2), and Dulbeccols Modified Eagle's Medium, containing 10% fetal bovine serum and penicillin (100 μg/ml) plus streptomycin (100 μg/ml). […] Cells were then lysed in 500 μl of 0.06M NaOH and the acid precipitable radioactivity was determined.

GC1 III cells = test: DNA synthesis ([3H]deoxyadenosine incorporation) in CG1 III cells; type: cell-based; conditions: Homo sapiens, 6-ABP 0.5 mM, 72 h, N=5
Description: as §1, §2

human lymphoblasts = test: Lymphoblast viability; type: cell-based
Description: The viability of lymphoblasts is measured by incubating the cells exposed to IL-2, HIV and to 6-ABP with H3-thymidine for 6 hours on the sixth day of culture and determining the amount of cpm incorporated per 100,000 cells placed in culture.

[4] = literature; cited from earlier work
HEp-2 cells = test: DNA synthesis ([3H]deoxyadenosine incorporation) in HEp-2 cells; type: cell-based; conditions: Homo sapiens, 6-ABP 0.5 mM, 72 h, N=5, read-out: % Inhibition of DNA synthesis
Description: as §1, §2

ADPRT [5] = target: T1, ADPRT; conditions: literature; cited from earlier work
AA-2 or MT-2 cells = test: Cell count and viability of AA-2 and MT-2 cells; type: cell-based, human
Description: The effects of 5-I-6-ABP treatment of AA-2 and MT-2 cells was directly analyzed by cell count and viability tests including cloning efficiency and trypan blue uptake. The AA2 or MT-2 cell culture having initial cell count per well 0.5×10^5 was submitted to treatment with 3 mM of 6-ABP and or with 0.1 mM of 5-I-6-ABP and compared to untreated cell culture. The cells were counted 4 days after the treatment with 5-I-6-ABP and 6-ABP.

CG1 I cells = test: DNA synthesis ([3H]deoxyadenosine incorporation) in CG1 I cells; type: cell-based; conditions: Homo sapiens, 6-ABP 0.5 mM, 72 h, N=5
Description: as §1, §2

14C cells = test: DNA synthesis ([3H]deoxyadenosine incorporation) in 14C cells; type: cell-based; conditions: Rattus norvegicus, 6-ABP 0.5 mM, 72 h, N=5, read-out: % Inhibition of DNA synthesis
Description: as §1, §2

HIV = test: Inhibition of syncytia formation by HIV in MT-2 cells; type: cell-based
Rat-1 cells = test: DNA synthesis ([3H]deoxyadenosine incorporation) in Rat-1 cells; type: cell-based; conditions: 6-ABP 0.5 mM, 72 h, N=5
Description: as §1, §2

T1 sequence (P18493 whole entry): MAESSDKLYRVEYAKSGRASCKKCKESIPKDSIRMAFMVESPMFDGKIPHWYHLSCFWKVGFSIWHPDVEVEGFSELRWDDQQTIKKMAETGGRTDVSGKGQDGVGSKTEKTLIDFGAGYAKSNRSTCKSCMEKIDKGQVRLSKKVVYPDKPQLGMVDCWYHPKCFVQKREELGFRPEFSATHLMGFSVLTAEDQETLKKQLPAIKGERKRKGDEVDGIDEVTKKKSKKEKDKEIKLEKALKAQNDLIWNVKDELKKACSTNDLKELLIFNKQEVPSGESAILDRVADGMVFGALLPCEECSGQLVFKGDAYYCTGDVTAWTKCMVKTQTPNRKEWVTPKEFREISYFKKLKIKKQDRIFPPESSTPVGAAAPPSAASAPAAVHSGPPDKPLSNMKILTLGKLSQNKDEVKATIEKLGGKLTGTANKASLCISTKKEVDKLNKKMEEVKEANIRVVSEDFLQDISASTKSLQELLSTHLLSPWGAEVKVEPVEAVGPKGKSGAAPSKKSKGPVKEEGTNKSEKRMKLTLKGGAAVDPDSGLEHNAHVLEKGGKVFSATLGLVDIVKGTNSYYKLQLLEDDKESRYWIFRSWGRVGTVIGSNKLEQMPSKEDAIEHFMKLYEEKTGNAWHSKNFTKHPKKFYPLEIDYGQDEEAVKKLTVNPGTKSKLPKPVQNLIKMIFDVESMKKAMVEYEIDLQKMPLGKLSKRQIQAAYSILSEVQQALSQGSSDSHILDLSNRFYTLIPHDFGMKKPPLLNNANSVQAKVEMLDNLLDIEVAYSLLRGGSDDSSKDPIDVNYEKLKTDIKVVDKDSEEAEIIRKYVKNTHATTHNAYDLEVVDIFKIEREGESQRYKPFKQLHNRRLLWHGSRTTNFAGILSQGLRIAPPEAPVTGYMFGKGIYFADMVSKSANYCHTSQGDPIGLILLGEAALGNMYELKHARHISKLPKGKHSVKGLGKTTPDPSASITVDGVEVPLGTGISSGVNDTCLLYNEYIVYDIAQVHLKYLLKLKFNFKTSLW

SMILES: O=Nc1ccc2oc(=O)ccc2c1I [5-I-6-NOBP, 5-iodo-6-nitroso-1,2-benzopyrone]
- potency relative to 6-ABP ([1]; biological action spectrum, vs 6-ABP): 10-50 times
- inhibition of / binding to ADPRT (ADPRT [2]): binds with high affinity to zinc-fingers of enzyme ADPRT; also recorded: potent inhibitor of ADPRT

SMILES: O=c1ccc2c(I)c([N+](=O)[O-])ccc2o1 [5-I-6-nitro-NBP, 5-iodo-6-nitro-1,2-benzopyrone]
- biochemical activity [3]: inactive

SMILES: Nc1ccc2oc(=O)ccc2c1 [6-ABP, 6-amino-1,2-benzopyrone, reference compound]
- inhibition at 500 µM (E-Ras cells): -69.5%
- inhibition at 500 µM (GC1 III cells): -37.5%
- cell damage or death (human lymphoblasts): without detectable cell damage or death
- sedative, hypnotic, hypothermal, antipyretic, hypotensive, adrenolytic action [4]: No significant action
- percent change in DNA synthesis vs control at 500 µM (HEp-2 cells): -47.6%
- ADPRT ligand (ADPRT [5]): specifically bind to ADPRT
- cytotoxicity (AA-2 or MT-2 cells): does not involve cytotoxicity
- effect on cell proliferation (AA-2 or MT-2 cells; 3 mM 6-ABP, 0.1 mM 5-I-6-ABP, 4 days): inhibitory effect on cell proliferation
- toxic effects in viability test (AA-2 or MT-2 cells; 3 mM 6-ABP, 4 days): no evidence of toxic effects
- inhibition at 500 µM (CG1 I cells): -19.8%
- effectivity of 500 μM 6-ABP compared with 5-I-6-ABP ([1]; 500 μM 6-ABP vs 50 μM 5-I-6-ABP, vs 500 μM as printed): the same effectivity
- percent change in DNA synthesis versus control at 500 µM (14C cells): -53.3%
- inhibition of syncytia formation (HIV): complete
- inhibition at 500 µM (Rat-1 cells): -30.5%
- IC50 (ADPRT [2]): 125 µM
- Ki (ADPRT [2]): 47 µM
